Measured values reported in patent publication US10021861B2, “Genetically modified non-human animals and methods relating to innate immune system response detection” (The Jackson Laboratory, priority 2013, dated 2018).
Marks after values point to notes of the source that are not given here.

Legend:
Format in all cases: in vivo
[1] = tested on: mouse innate immune cells; experiment: CD40 and CD86 expression on mouse innate immune cells from spleen of NSG mice (flow cytometry); conditions: 100 μg IP, 24 hours
Experimental: (§1) (San Jose, Calif.), eBiosciences (San Diego, Calif.) or BioLegend, (San Diego, Calif.). […] Single-cell suspensions of bone marrow (BM) and spleen were prepared from engrafted mice, and whole blood was collected in heparin. Single cell suspensions of 1×10^6 cells in 50 μL or 100 μL of whole blood were washed with FACS buffer (PBS supplemented with 2% fetal bovine serum, (HyClone, Logan, Utah) and 0.02% sodium azide (Sigma, St. Louis, Mo.)) and then pre-incubated with rat anti-mouse FcR11b (clone 2.4G2, BD Biosciences) to block Fc binding. Specific antibodies were then added to the samples and incubated for 30 min at 4° C. Stained samples were then washed and fixed with 2% paraformaldehyde for cell suspensions or treated with BD FACS lysing solution for whole blood. At least 50,000 events were acquired on LSRII or FACSCalibur instruments (BD Biosciences). Data analysis was performed with FlowJo (Tree Star, Inc., Ashland, Oreg.) software. Ultra Pure lipopolysaccharide (LPS, E. coli 0111:B4 strain), and polyinosinic-polycytidylic (poly(I:C), high molecular weight, HMW) were purchased from Invivogen (San Diego, Calif.). The indicated mice were injected intraperitoneally (IP) with 100 μg of either LPS or poly(I:C). To confirm that NSG-TLR4^null mice are unable to respond to TLR4 agonists, NSG and NSG-TLR4^null mice were treated with LPS and the ability of innate immune cells to increase expression of phenotypic markers (Table I) and produce cytokines (FIG. 2) was evaluated.

[2] = tested on: mouse innate immune cells; experiment: CD40 and CD86 expression on mouse innate immune cells from spleen of NSG-TLR4^null mice (flow cytometry)
Experimental: as §1

[3] = tested on: mouse innate immune cells; experiment: Mouse serum cytokines by cytometric bead array in NSG-TLR4^null mice (unmanipulated or HSC-engrafted); conditions: in both NSG and NSG-TLR4^null mice, 100 μg IP, 24 hours
[4] = NSG-TLR4^null mice, 100 μg IP, 24 hours, spleen

polyinosinic-polycytidylic [poly(IC)]
CD40 Expression, CD11b+ Macrophage [1]: 3909 ± 377 | CD40 Expression, CD11c+/CD11b+ DC [1]: 6860 ± 1276^b | CD40 Expression, CD11c+/CD11b− DC [1]: 19935 ± 1020^b | CD86 Expression, CD11b+ Macrophage [1]: 68.27 ± 5.93 | CD86 Expression, CD11c+/CD11b+ DC [1]: 540.3 ± 40^b | CD86 Expression, CD11c+/CD11b− DC [1]: 1111 ± 141^c | CD40 Expression, CD11b+ Macrophage [2, 4]: 4168 ± 104 | CD40 Expression, CD11c+/CD11b+ DC [2, 4]: 5035 ± 3278^b | CD40 Expression, CD11c+/CD11b− DC [2, 4]: 16160 ± 3782^b | CD86 Expression, CD11b+ Macrophage [2, 4]: 77.77 ± 15.96 | CD86 Expression, CD11c+/CD11b+ DC [2, 4]: 635 ± 57.7^b | CD86 Expression, CD11c+/CD11b− DC [2, 4]: 1315 ± 82^b | induced increases in the expression of CD40 and CD86 on mouse innate immune cells ([2]; between NSG and NSG-TLR4^null mice): similar | mouse cytokine response [3]: similar
